From PubChem BioAssay AID1963868 (Molecular Pharmacology Branch, DTP, NCI, 2024)

System: KRAS PDC tumor spheroids (HUVEC+MSC), viability
Assay: Anticancer human tumor 254851-301-R-J1-PDC patient-derived colon carcinoma cell line growth inhibition [KRAS2]
Settings: for IC50: curve of first compound; for viability, T/C: stronger effect = lower value
In short: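 Combination screen of spheroid viability in tumor-cell co-cultures with endothelial (HUVEC) and mesenchymal stem cell stroma. Each agent was tested in half-log dilutions, topping at clinical Cmax or at 10 microM without a known Cmax.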

[1] = second compound 0.1 µM, first compound 0.0316 µM
[2] = second compound 0.1 µM, first compound 0.1 µM
[3] = second compound 0.1 µM, first compound 0.316 µM
[4] = second compound 0.1 µM, first compound 1 µM
[5] = second compound 0.1 µM, first compound 3.16 µM
[6] = second compound 0.1 µM, first compound 10 µM
[7] = second compound 0.316 µM, first compound 0.0316 µM
[8] = second compound 0.316 µM, first compound 0.1 µM
[9] = second compound 0.316 µM, first compound 0.316 µM
[10] = second compound 0.316 µM, first compound 1 µM
[11] = second compound 0.316 µM, first compound 3.16 µM
[12] = second compound 0.316 µM, first compound 10 µM
[13] = second compound 1 µM, first compound 0.0316 µM
[14] = second compound 1 µM, first compound 0.1 µM
[15] = second compound 1 µM, first compound 0.316 µM
[16] = second compound 1 µM, first compound 1 µM
[17] = second compound 1 µM, first compound 3.16 µM
[18] = second compound 1 µM, first compound 10 µM
[19] = second compound 3.16 µM, first compound 0.0316 µM
[20] = second compound 3.16 µM, first compound 0.1 µM
[21] = second compound 3.16 µM, first compound 0.316 µM
[22] = second compound 3.16 µM, first compound 1 µM
[23] = second compound 3.16 µM, first compound 3.16 µM
[24] = second compound 3.16 µM, first compound 10 µM
[25] = second compound 10 µM, first compound 0.0316 µM
[26] = second compound 10 µM, first compound 0.1 µM
[27] = second compound 10 µM, first compound 0.316 µM
[28] = second compound 10 µM, first compound 1 µM
[29] = second compound 10 µM, first compound 3.16 µM
[30] = second compound 10 µM, first compound 10 µM
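Also: spheroids exposed to compounds for seven days before readout.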
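For viability, T/C in this document: 100% = DMSO vehicle control luminescence of the spheroids.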

Row | Structure (SMILES) | IC50 (second compound 0.1 µM) [nM] | IC50 (second compound 0.316 µM) [nM] | IC50 (second compound 1 µM) [nM] | IC50 (second compound 3.16 µM) [nM] | IC50 (second compound 10 µM) [nM] | viability, T/C [1] [%] | viability, T/C [2] [%] | viability, T/C [3] [%] | viability, T/C [4] [%] | viability, T/C [5] [%] | viability, T/C [6] [%] | viability, T/C [7] [%] | viability, T/C [8] [%] | viability, T/C [9] [%] | viability, T/C [10] [%] | viability, T/C [11] [%] | viability, T/C [12] [%] | viability, T/C [13] [%] | viability, T/C [14] [%] | viability, T/C [15] [%] | further results
1 | COC(=O)c1ccc2c(C(=Nc3ccc(N(C)C(=O)CN4CCN(C)CC4)cc3)c3ccccc3)c(O)[nH]c2c1 + CNCc1ccccc1-c1csc(C(C)Nc2nc(C)nc3cc(OC)c(OC)cc23)c1 | > 10000 | > 10000 | > 10000 | 378 | < 31.6 | 101 | 94.3 | 96.3 | 91 | 83.9 | 95.9 | 93.1 | 93.6 | 91.9 | 87 | 77.4 | 86.2 | 91.8 | 96.5 | 84.8 | viability, T/C [16]: 79.9%; viability, T/C [17]: 69.2%; viability, T/C [18]: 59%; viability, T/C [19]: 63.6%; viability, T/C [20]: 70.2%; viability, T/C [21]: 58.8%; viability, T/C [22]: 2.44%; viability, T/C [23]: 0.21%; viability, T/C [24]: 0.68%; viability, T/C [25]: 0.16%; viability, T/C [26]: 0.16%; viability, T/C [27]: 0.25%; viability, T/C [28]: 0.11%; viability, T/C [29]: 0.1%; viability, T/C [30]: 0.16%
2 | COc1cc(Nc2ncc3c(n2)-c2ccc(Cl)cc2C(c2c(F)cccc2OC)=NC3)ccc1C(=O)O + CNCc1ccccc1-c1csc(C(C)Nc2nc(C)nc3cc(OC)c(OC)cc23)c1 | 82.8 | 83.4 | 87.1 | < 31.6 | < 31.6 | 80 | 40.1 | 29.3 | 26.2 | 18.5 | 9.63 | 77.9 | 39.5 | 31.1 | 27 | 17.7 | 9.95 | 82 | 39.5 | 32.8 | viability, T/C [16]: 28.6%; viability, T/C [17]: 21.6%; viability, T/C [18]: 9.92%; viability, T/C [19]: 49.5%; viability, T/C [20]: 22.9%; viability, T/C [21]: 20.6%; viability, T/C [22]: 12.5%; viability, T/C [23]: 6.88%; viability, T/C [24]: 4.66%; viability, T/C [25]: 0.15%; viability, T/C [26]: 0.13%; viability, T/C [27]: 0.12%; viability, T/C [28]: 0.1%; viability, T/C [29]: 0.11%; viability, T/C [30]: 0.14%
3 | COc1cc2nccc(Oc3ccc(NC(=O)C4(C(=O)Nc5ccc(F)cc5)CC4)cc3)c2cc1OC + CNCc1ccccc1-c1csc(C(C)Nc2nc(C)nc3cc(OC)c(OC)cc23)c1 | 9900 | 7280 | 6420 | 1630 | < 31.6 | 102 | 104 | 97.2 | 103 | 101 | 49.6 | 112 | 91.5 | 96.3 | 101 | 85.5 | 36.3 | 107 | 102 | 100 | viability, T/C [16]: 99.7%; viability, T/C [17]: 82.7%; viability, T/C [18]: 29.3%; viability, T/C [19]: 82%; viability, T/C [20]: 78%; viability, T/C [21]: 72.4%; viability, T/C [22]: 64.4%; viability, T/C [23]: 32.5%; viability, T/C [24]: 0.27%; viability, T/C [25]: 0.19%; viability, T/C [26]: 0.17%; viability, T/C [27]: 0.16%; viability, T/C [28]: 0.18%; viability, T/C [29]: 0.13%; viability, T/C [30]: 0.17%
